The text below walks through data of ChEMBL document CHEMBL2074030, “The systemic exposure of an N-methyl-D-aspartate receptor antagonist is limited in mice by the P-glycoprotein and breast cancer resistance protein efflux transporters” (Drug Metab Dispos, 2004).

The series deals with ATP-dependent translocase ABCB1 (Mus musculus, UniProt P21447). Nature of the series: TP_TRANSPORTER: transepithelial transport (apical to basal) in Mdr1a-expressing LLC-PK1 cells. In kind it is functional, cell-based. The settings on record: pig.
ATP-dependent translocase ABCB1, sequence (P21447 whole entry): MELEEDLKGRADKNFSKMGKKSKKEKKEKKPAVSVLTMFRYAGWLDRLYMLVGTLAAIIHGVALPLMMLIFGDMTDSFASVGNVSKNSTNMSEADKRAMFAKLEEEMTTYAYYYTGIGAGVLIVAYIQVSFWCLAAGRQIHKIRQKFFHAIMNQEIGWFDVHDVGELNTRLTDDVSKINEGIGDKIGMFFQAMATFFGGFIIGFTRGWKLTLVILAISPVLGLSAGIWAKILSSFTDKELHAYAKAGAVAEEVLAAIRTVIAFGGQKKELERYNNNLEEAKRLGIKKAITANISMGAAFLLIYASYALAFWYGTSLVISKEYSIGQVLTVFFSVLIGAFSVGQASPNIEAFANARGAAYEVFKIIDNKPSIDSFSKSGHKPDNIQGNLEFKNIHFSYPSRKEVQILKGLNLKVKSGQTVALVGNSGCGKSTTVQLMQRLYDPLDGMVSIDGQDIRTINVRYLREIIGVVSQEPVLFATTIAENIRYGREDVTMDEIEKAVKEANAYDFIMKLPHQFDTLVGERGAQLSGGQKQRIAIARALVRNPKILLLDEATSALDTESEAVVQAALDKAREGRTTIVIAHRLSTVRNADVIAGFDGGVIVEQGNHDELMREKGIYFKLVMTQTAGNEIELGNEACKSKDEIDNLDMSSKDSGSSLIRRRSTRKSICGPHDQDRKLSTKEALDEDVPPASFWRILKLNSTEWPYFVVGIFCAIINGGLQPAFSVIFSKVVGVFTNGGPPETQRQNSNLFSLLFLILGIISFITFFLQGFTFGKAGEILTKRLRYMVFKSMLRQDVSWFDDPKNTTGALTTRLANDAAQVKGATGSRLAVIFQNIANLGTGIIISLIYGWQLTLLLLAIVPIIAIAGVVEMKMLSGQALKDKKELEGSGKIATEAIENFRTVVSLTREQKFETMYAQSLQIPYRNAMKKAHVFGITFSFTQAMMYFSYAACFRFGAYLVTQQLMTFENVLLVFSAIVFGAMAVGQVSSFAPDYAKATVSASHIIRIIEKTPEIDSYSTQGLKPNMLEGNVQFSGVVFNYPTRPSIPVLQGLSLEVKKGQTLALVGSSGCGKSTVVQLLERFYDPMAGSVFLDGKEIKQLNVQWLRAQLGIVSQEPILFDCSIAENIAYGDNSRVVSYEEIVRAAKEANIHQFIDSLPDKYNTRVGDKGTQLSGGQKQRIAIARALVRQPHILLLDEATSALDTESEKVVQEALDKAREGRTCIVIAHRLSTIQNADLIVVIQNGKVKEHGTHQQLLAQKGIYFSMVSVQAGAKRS

For the compound `CC(C)CN(C[C@@H](O)[C@H](Cc1ccccc1)NC(=O)O[C@H]1CCOC1)S(=O)(=O)c1ccc(N)cc1` [AMPRENAVIR], the Activity result was “substrate [+]”. `O=C(O)c1[nH]c2cc(Cl)cc(Cl)c2c1/C=C1\CCN(c2ccccc2)C1=O`: the Activity entry was “is not a substrate [-]”.
